Results published in patent US20200199527A1, “METHODS OF MATURATION OF HUMAN SPERMATOGONIUM” (B.G. Negev Technologies & Applications Ltd., at Ben-Gurion …, priority 2017, published 2020).

Assays:
[1] = system: cells isolated from seminiferous tubules of ICR immature (7-day-old) mice; assay: Effect of hormones and retinoic acid on development of mouse spermatogenesis in vitro in methylcellulose culture system (qPCR of markers); type: cell-based; conditions: 10^−8 M, 10^−7 M or 10^−6 M added after two weeks of culture, examined after total four weeks, normal immature mice
Procedure: Cells were enzymatically isolated from seminiferous tubules of ICR mice (which were developed by the Institute of Cancer Research, also called CD-1) immature mice (7-day-old mice).
Briefly, cells were cultured (2×10^5 cells/well/500 μl) in MEM medium which contained sodium bicarbonate 7.5%, L-glutamine 200 mM, non-essential amino acids 1%, penicillin/streptomycin and gentamicin 10 mg/ml, and were incubated over 2 nights in 24 wells plate at 37° C., 5% CO2. The nonadherent cells were collected and cultured ([…] cells/well/500 μl) in methylcellulose (42%; R&D, Minneapolis, USA) [as a three-dimension (3D) culture system], which contained the StemPro-34 medium (Gibco, USA) enriched with: 10% KSR (knockout serum replacement, Gibco, USA) and the following growth factors: Glial cell-derived neurotrophic factor (GDNF; 10 ng/ml; Biolegend), Leukemia inhibitory factor (LIF; 10 ng/ml; Biolegend), epidermal growth factors (EGF; 20 ng/ml; Biolegend, CA, USA), bFGF (basic fibroblast growth factor) (10 ng/ml; Biolegend).
Cells were cultured for 4 weeks. Every 1-2 weeks (according to the growth and morphology of the cells) the present inventor added 50 μl/well of fresh concentrated (×10) enriched StemPro-34 medium to the cell cultures. […]

[2] = system: Isolated testicular cells (from azoospermic adult patients); assay: Effect of TNFα on development of spermatogenic markers in vitro in methylcellulose culture system (MCS); type: cell-based, human; design: key to VASA (pre-meiotic marker) staining / PLZF (pre-meiotic marker) staining / SALL4 (pre-meiotic marker) staining / CREM (meiotic marker) staining / BOULE (meiotic marker) staining / ACROSIN (post-meiotic marker) staining: “+” indicates positive staining for the indicated marker; “−” indicates negative staining for the indicated marker
Excerpt: After an overnight in sperm wash media containing 30% human serum albumin at room temperature (RT), TESE specimen were re-searched for sperm and then collected into the same media and transferred to the present inventor' lab, while TEFNA specimens were transferred to Modified Human Tubal Fluid (HTF) media containing 15% serum protein substitutes and transferred to the present inventor' lab after two days at RT. For cell isolation, biopsies were cut into small pieces of ˜2 mm, and subjected to collagenase type V (2 mg/ml) (Sigma, St. Louis, Mo., USA), DNAse (8 μg/ml) (Sigma) and hyelorunidase (2 mg/ml) (Sigma) in a total volume of 4 ml for 20 minutes in a 32° C. water bath shaker. Cells were precipitated by centrifugation (300×g, 10 minutes) and suspended with 4 ml of Tryple Select (Gibco, Denmark) for 10 minutes in a shaking water bath at 32° C. Cell suspension was centrifuged (300×g, 10 minutes) and the precipitated cells were suspended in 200 μl Roswell Park Memorial Institute (RPMI) (Biological Industries, Beit Haemek, Israel) and counted. Cells were cultured (2×10^4 cells/well/500 μl) in Minimum Essential Medi (MEM) (Biological Industries) which contained sodium bicarbonate (Gibco, UK), 7.5%, L-glutamine (Biological industries) 200 mM, non-essential amino acids (Gibco, UK) 1%, penicillin/streptomycin (Biological Industries) and gentamicin (Biological Industries) (10 mg/ml), and incubated for 2 nights in 24 well plates at 37° C., 5% CO2. The nonadherent cells were collected and cultured (2×10^4 cells/well/500 μl) in methylcellulose (R&D, Minneapolis, USA) (42%) [as a three-dimension (3D) culture system], which contained 33% StemPro-34 medium (Gibco, USA) enriched with: StemPro supplement (2.6%) (Gibco), insulin (25 μg/ml) (Gibco), transferrin (100 μg/ml) (Gibco), putrescin (60 μg/ml) (Gibco), sodium selenite (30 nM) (Gibco), D-glucose (6 mg/ml) (Sigma), pyruvic acid (30 μg/ml) (Sigma), BSA (Millpore, Illkirch, France) (5 mg/ml), L-glutamine (2 mM) (Biological Industries), 2-mercaptoethanol (0.5 μM) (Gibco), MEM vitamin solution (10 μl/ml) (Gibco, UK), MEM non-essential amino acid solution (10 μl/ml) (Gibco, UK), ascorbic acid (100 μM) (Sigma, China), d-biotin (10 μg/ml) (Sigma), 1% KSR (Gibco, UK), 0.5% Pen/Strep (Biological Industries), human rEGF (20 ng/ml) (Biolegend, CA, USA), human rGDNF (10 ng/ml) (Biolegend), human rLIF (10 ng/ml) (Biolegend) and human r-bFGF (10 ng/ml) (Biolegend). Cells were cultured for 1-16 weeks. Every 1-2 weeks (according to the growth and morphology of the cells), we added 50 μl/well of fresh concentrated (×10) enriched StemPro-34 medium to the cell cultures.
Isolated cells were fixed in cold methanol for 20 minutes. The immunostaining process was similar to that mentioned above for testicular tissue immunostaining after the stage of antigen retrieval. Following the removal of the blocking buffer, the first antibodies were added: Polyclonal rabbit anti-mouse SALL4 (Abcam, Cambridge, UK; 1:400), Polyclonal rabbit anti-human VASA (Santa Cruz 1:100), Polyclonal rabbit anti-human CD9 (Santa Cruz; 1:10), Polyclonal goat anti-human OCT4 (Santa Cruz; 1:50), Polyclonal rabbit anti-human α-6-INTEGRIN (Santa Cruz; 1:100), Polyclonal rabbit anti-human GFR-α □(Santa Cruz; 1:50), monoclonal mouse anti-human PLZF (Santa Cruz; 1:100), Polyclonal rabbit anti-human c-KIT (Santa Cruz; 1:50), Polyclonal rabbit anti-human BOULE (Santa Cruz; 1:25), Polyclonal rabbit anti-mouse CREM-1 (Santa Cruz; 1:30), Polyclonal goat anti-human LDH (Santa Cruz; 1:50), Polyclonal goat anti-mouse PROTAMINE (Santa Cruz; 1:20), Polyclonal rabbit anti-human ACROSIN (Santa Cruz; 1:10), monoclonal mouse anti-human Ki67 (Dianova GmbH, Germany; 1:200), monoclonal rabbit anti-human Ki67 (Cell marque; 1:200). After overnight incubation at 4° C., the slides were washed and treated as mentioned above for testicular tissue immunostaining. […]

[3] = TNFα 20 pg/ml, after culture (14.5 Ws) in MCS, patient 1, immunofluorescence staining

With `C[C@]12CC[C@H]3[C@@H](CCC4=CC(=O)CC[C@@]43C)[C@@H]1CC[C@@H]2O` [testosterone] the “expression of the meiotic/post-meiotic marker ACROSIN” value [1] was “increased”.
In the case of TNFα, the “differentiation of the pre-meiotic cells to meiotic cells that express CREM” value ([2]; TNFα 20 pg/ml, patient #1, compared to CT (did not induce CREM)) is reported as “induced the differentiation”, the “growth of premeiotic cells VASA and PLZF, meiotic cells (Boule) and postmeiotic cells (acrosin positive cells)” value ([2]; TNFα 20 pg/ml, patient #1, versus control (CT)) is reported as “maintained/induced growth” and the “ACROSIN (post-meiotic marker) staining” value [2, 3] is reported as “+”. The “BOULE (meiotic marker) staining” value [2, 3] was “+”, the “CREM (meiotic marker) staining” value [2, 3] was “+” and the “PLZF (pre-meiotic marker) staining” value [2, 3] was “+”. For the same compound, the “SALL4 (pre-meiotic marker) staining” value [2, 3] was “−”, the “VASA (pre-meiotic marker) staining” value [2, 3] was “+” and the “development of colonies in MCS” value ([2]; in the presence of TNFα) was “colonies were developed”.
